# Measurements taken from article PMC12801676, “Guanidino compounds with native GABA(A) δ receptor selectivity: a tale of homeostatic compensation in δ-KO mice” (BMC Neuroscience, 2025).
# “And” between values parts separate entries of the source, which are not always exact repeats. Identical values can stand only once. Like-named read-outs stand apart in the source and are kept apart here.
# How the values were obtained:
# [1] = target: GABARs in δ-KO mouse forebrain membranes; test: [3H]muscimol displacement, δ-KO forebrain membranes; format: binding; conditions: for IC50: δ-KO forebrain membranes, room temperature, mean ± SD
# Method: (§1) Brain (sans cerebellum) membranes from WT and δ-KO mice were prepared as described and stored frozen at -70 °C. After thawing, membranes were washed once in assay buffer (50 mM Tris-HCl, pH 7.4) and incubated for 40 min with 5 nM [^3H]muscimol in assay buffer in a total volume of 300 µl at room temperature. […] Three milliliters of Optiphase HiSafe 3 scintillation fluid (Wallac, Turku, Finland) were added to air-dried filters and GABAR bound [^3H]muscimol radioactivity determined in a Hidex 600 SL liquid scintillation counter (Hidex, Turku, Finland).
# [2] = test system: native GABARs in WT cerebellar granule cells (CGCs); test: Whole-cell patch clamp of WT cerebellar granule cells in brain slices, cumulative concentration-response; conditions: for WT Imax / WT slope (Hill slope) / EC50: WT CGCs, mean ± SEM; for WT Imax: maximal evoked current at saturating agonist concentration; for EC50: read-out: WT EC50, steady-state currents at -70 mV, Hill fit; for CGC GABAR activity: concentrations up to 1 mM
# [3] = target: GABARs in WT mouse forebrain membranes; test: [3H]muscimol displacement, WT forebrain membranes; format: binding; conditions: for IC50: 5 nM [3H]muscimol; for [3H]muscimol (5 nM) displacement: concentrations up to 0.3 mM, mouse forebrain
# Method: as §1
# [4] = test system: native GABARs in δ-KO cerebellar granule cells (CGCs); test: Whole-cell patch clamp of δ-KO cerebellar granule cells in brain slices, cumulative concentration-response; format: cell-based, mouse; conditions: mean ± SEM; for δ-KO Imax: maximal evoked current at saturating agonist concentration; for EC50: steady-state currents at -70 mV, Hill fit
# [5] = test system: taurine transporter; parameters: method as in PMID 512911; conditions: ref [24]; read-out: Km as taurine transporter substrate; cited from earlier work
# [6] = test system: creatine transporter; parameters: method as in PMID 35837012; conditions: recombinant (HEK) cell expression; ref [20]; cited from earlier work
# [7] = target: α4β3δ receptors; parameters: method as in PMID 30565258; conditions: ref [36], read-out: functional muscimol EC50; cited from earlier work
# [8] = test system: recombinantly expressed γ2-GABARs; parameters: method as in PMID 9396785; conditions: ref [48], read-out: functional (EC50) muscimol responses; cited from earlier work
# [9] = WT forebrain membranes, room temperature, mean ± SD, read-out: IC50 for [3H]muscimol displacement, WT
Compound,IC50 ([1]; 5 nM [3H]muscimol) [µM],WT Imax [2] [pA],WT slope (Hill slope) [2],EC50 [2],"IC50 [3, 9]",δ-KO Imax [4] [pA],δ-KO slope (Hill slope) [4],EC50 [4],further results
"[H]/N=C(/N)NCC(=O)O [GAA, guanidinoacetate]",2.5 ± 0.3,-60 ± 18,1.1 ± 0.16,4.4 ± 0.9 µM,3.1 ± 0.7 µM,-50 ± 10,0.94 ± 0.1,14 ± 2 µM,
"NCCCC(=O)O [GABA, γ-aminobutyrate]",,-66 ± 5,1.5 ± 0.3,,,-65 ± 18,1.1 ± 0.1,,
"NC(N)=NCCS(=O)(=O)O [GES, guanidinoethanesulfonate]",35 ± 4,-35 ± 7,0.89 ± 0.3,~32 µM and 32 µM,36 ± 7 µM,-29 ± 6,0.83 ± 0.2,72 ± 10 µM,Km [5]: ~150 µM
"NCc1cc(=O)[nH]o1 [[^3H]muscimol, [Methylene-^3H]muscimol, reference compound]",,,,,,,,,"reduction of [3H]muscimol binding in δ-KO forebrain compared with WT ([1]; 5 nM [3H]muscimol, forebrain): ~ 50%; 5 nM [3H]muscimol binding, δ-KO ([1]; δ-KO forebrain, specific binding normalized to protein): 140 ± 5 fmol/mg protein; 5 nM [3H]muscimol binding, WT ([3]; WT forebrain, specific binding normalized to protein): 265 ± 7 fmol/mg protein"
N=C(N)NCCC[C@H](N)C(=O)O [arginine],,,,,,,,,CGC GABAR activity [2]: absence of detectable CGC GABAR activity; [3H]muscimol (5 nM) displacement [3]: absence of [^3H]muscimol (5 nM) displacement
CN(CC(=O)O)C(=N)N [creatine],,,,,,,,,EC50 [6]: ~35 µM; CGC GABAR activity [2]: absence of detectable CGC GABAR activity; [3H]muscimol (5 nM) displacement [3]: absence of [^3H]muscimol (5 nM) displacement
"COc1ccc(-c2ccc(=N)n(CCCC(=O)O)n2)cc1 [gabazine, Gabazine, reference compound]",,,,,,,,,"block of agonist-evoked CGC currents ([2]; currents evoked by GAA, β-GPA, γ-GBA, GES in WT and δ-KO CGCs): completely blocked"
NCc1cc(=O)[nH]o1 [muscimol],,,,,,,,,EC50 [7]: ~0.001 µM; EC50 [8]: 1 to 10 µM
"N=C(N)NCCCC(=O)C(=O)O [α-K-δ-GVA, α-Keto-δ-guanidinovalerate]",,,,,,,,,CGC GABAR activity [2]: absence of detectable CGC GABAR activity; [3H]muscimol (5 nM) displacement [3]: absence of [^3H]muscimol (5 nM) displacement
"[H]/N=C(\N)NCCC(=O)O [β-GPA, β-guanidinopropionate]",3.6 ± 0.6,-45 ± 9,0.85 ± 0.1,3.2 ± 0.6 µM,3.8 µM and ~4 µM,-74 ± 19,1.3 ± 0.2,8 µM and 8.2 µM,EC50 [6]: ~13 µM
"N=C(N)NCCCC(=O)O [γ-GBA, γ-guanidinobutyrate]",26 ± 5,-75 ± 12,0.81 ± 0.1,~44 µM and 44 µM,8.5 ± 0.9 µM,-32 ± 7,0.95 ± 0.1,219 ± 11 µM,"IC50 ([3]; δ-KO values subtracted from WT values, read-out: δ-specific (WT minus δKO) displacement IC50): 3.5 ± 1.2 µM"
